From BindingDB's records for patent US20240150287 (Hangzhou Apeloa Medicine Research Institute Co., 2024)
Values joined by “and” are separate entries in the source; they are usually repeats but may differ in a detail not shown here. Equal entries are not always repeated.

Biological target: T1, Mucosal addressin cell adhesion molecule 1/Integrin alpha-4/beta-7 (Homo sapiens, UniProt P13612+P26010+Q13477)
T1 sequence (P13612 whole entry): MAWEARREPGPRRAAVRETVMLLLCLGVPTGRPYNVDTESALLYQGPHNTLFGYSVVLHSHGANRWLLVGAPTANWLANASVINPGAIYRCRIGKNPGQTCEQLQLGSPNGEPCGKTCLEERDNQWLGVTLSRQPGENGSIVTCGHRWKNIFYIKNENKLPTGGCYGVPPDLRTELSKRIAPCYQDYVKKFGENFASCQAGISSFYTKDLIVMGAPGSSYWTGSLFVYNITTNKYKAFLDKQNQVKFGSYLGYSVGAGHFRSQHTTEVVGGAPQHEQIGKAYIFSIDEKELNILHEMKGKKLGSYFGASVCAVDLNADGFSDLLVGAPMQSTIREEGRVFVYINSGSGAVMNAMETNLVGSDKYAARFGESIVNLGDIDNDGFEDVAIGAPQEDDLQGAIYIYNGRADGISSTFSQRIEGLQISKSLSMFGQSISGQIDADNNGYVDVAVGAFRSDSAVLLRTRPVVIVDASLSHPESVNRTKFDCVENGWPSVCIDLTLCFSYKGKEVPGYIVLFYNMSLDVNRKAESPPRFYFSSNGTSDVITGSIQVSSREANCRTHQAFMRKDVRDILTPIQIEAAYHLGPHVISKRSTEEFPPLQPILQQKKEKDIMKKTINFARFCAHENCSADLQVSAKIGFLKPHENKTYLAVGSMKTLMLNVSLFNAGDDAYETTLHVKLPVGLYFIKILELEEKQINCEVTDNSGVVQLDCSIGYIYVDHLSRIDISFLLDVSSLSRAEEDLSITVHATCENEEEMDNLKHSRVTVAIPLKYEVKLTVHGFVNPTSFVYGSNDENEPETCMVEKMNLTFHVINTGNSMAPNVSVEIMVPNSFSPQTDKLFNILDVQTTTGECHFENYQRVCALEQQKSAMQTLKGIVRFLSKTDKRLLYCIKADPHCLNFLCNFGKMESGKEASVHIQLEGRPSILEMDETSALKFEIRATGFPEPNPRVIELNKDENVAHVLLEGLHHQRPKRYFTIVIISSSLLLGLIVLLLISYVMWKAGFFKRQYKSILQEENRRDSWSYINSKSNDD
T1 sequence (P26010 whole entry): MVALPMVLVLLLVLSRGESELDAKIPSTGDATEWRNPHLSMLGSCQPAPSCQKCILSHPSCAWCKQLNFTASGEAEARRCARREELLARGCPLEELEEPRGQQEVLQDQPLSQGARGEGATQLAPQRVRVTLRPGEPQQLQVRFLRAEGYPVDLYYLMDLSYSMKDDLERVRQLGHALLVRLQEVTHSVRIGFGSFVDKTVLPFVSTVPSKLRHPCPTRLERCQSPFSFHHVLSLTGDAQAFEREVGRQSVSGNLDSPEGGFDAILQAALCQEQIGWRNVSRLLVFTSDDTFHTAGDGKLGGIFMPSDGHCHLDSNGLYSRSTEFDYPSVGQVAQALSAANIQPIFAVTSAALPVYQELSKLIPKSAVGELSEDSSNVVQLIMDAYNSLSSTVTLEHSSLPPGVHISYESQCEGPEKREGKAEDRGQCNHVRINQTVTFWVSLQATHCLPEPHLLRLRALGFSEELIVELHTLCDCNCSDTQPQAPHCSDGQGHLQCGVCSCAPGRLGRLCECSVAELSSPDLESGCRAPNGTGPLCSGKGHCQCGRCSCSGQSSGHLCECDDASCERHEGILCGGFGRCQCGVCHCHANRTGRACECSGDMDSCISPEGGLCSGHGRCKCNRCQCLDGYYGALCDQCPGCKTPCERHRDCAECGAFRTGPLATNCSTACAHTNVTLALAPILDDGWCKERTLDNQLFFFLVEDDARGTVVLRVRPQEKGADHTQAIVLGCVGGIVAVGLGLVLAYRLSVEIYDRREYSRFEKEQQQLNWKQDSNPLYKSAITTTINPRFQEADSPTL
T1 sequence (Q13477 whole entry): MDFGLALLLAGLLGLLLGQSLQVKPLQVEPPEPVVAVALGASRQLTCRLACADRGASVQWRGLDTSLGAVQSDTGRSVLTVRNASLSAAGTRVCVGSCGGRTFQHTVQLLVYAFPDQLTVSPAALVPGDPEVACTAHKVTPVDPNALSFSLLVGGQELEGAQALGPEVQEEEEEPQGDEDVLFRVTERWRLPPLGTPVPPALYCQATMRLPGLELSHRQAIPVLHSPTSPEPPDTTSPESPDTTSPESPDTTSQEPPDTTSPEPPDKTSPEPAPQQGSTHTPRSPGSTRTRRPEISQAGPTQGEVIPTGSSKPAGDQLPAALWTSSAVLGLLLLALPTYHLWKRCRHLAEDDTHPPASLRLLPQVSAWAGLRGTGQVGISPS
Test: BINDING INHIBITION ACTIVITY EVALUATION TEST
Protocol: Coat the 96-well microplate (Costar) with 50 μL of recombinant human MAdCAM-1 (R&D Systems) solution per well, and incubate overnight (12-18 hours) at 4° C. Wash three times with 150 μL of TBS buffer per well. Block plate with 150 μL per well with blocking buffer for 1 h at 37° C. Wash three times with 150 μL of TBS buffer per well. Dilute the recombinant human integrin α4β7 (R&D Systems) with TBS buffer containing 0.1% bovine serum albumin (BSA), then add to the 96 well plate with 50 μL per well. Add 1 μL of test compound or DMSO, cover, incubate at room temperature for 2 h, wash three times with 150 μL of TBS buffer per well. Dilute the anti-β7 antibody (R&D Systems) with 0.1% BSA TBS buffer, then add to the 96 well plate with 50 μL per well, cover, incubate at room temperature for 1 h, wash three times with 150 μL of TBS buffer per well. Add 50 μL of streptavidin-HRP (R&D Systems) per well, incubate at room temperature for 20 min, wash three times with 150 μL of TBS buffer per well. Add 50 μL of TMB substrate solution (Sigma) per well, incubate at room temperature for 5-30 min, and add 25 μL of stop solution per well to stop the reaction. Finally, measure absorbance at 450 nm with microplate reader (SpectraMax 340PC. Molecular Devices). Repeat the test to find the binding rate […] at each concentration when the absorbance of the well without the test substance is used as 100%, and calculate the concentration IC50 that causes 50% binding inhibition.

Compound | IC50
COC(=O)[C@H](Cc1ccc(N2C(=O)C3(CC3)c3cc(F)c(F)cc32)cc1)NC(c1ccccc1)(c1ccccc1)c1ccccc1 [US20240150287, Example 1] | 14.3 nM
COC(=O)[C@H](Cc1ccc(N2C(=O)C3(CC3)c3cccc(Cl)c32)cc1)NC(c1ccccc1)(c1ccccc1)c1ccccc1 [US20240150287, Example 2] | 2.57 nM
COC(=O)[C@H](Cc1ccc(N2C(=O)C3(CC3)c3cccc(OC)c32)cc1)NC(c1ccccc1)(c1ccccc1)c1ccccc1 [US20240150287, Example 3] | 5.48 nM
COC(=O)[C@H](Cc1ccc(N2C(=O)C3(CC3)c3ccc(F)cc32)cc1)NC(c1ccccc1)(c1ccccc1)c1ccccc1 [US20240150287, Example 4] | 2.54 nM and 8.02 nM
COC(=O)[C@H](Cc1ccc(N2C(=O)C3(CC3)c3cccc(F)c32)cc1)NC(c1ccccc1)(c1ccccc1)c1ccccc1 [US20240150287, Example 5] | 6.21 nM
COC(=O)[C@H](Cc1ccc(N2C(=O)C3(CC3)c3ccccc32)cc1)NC(c1ccccc1)(c1ccccc1)c1ccccc1 [US20240150287, Example 6] | 5.81 nM
COC(=O)[C@H](Cc1ccc(N2C(=O)C3(CCOCC3)c3cccc(Cl)c32)cc1)NC(c1ccccc1)(c1ccccc1)c1ccccc1 [US20240150287, Example 7] | 16.1 nM
COC(=O)[C@H](Cc1ccc(N2C(=O)C3(CC3)c3cc(F)c(Cl)cc32)cc1)NC(c1ccccc1)(c1ccccc1)c1ccccc1 [US20240150287, Example 8] | 17.6 nM
COC(=O)[C@H](Cc1ccc(N2C(=O)C3(CC3)c3cc(F)ccc32)cc1)NC(c1ccccc1)(c1ccccc1)c1ccccc1 [US20240150287, Example 9] | 95.5 nM
COC(=O)[C@H](Cc1ccc(N2C(=O)C(C)(C)c3cccc(Cl)c32)cc1)NC(c1ccccc1)(c1ccccc1)c1ccccc1 [US20240150287, Example 10] | 38.8 nM
COC(=O)[C@H](Cc1ccc(N2C(=O)C3(CC3)c3cc(F)c(N(C)C)cc32)cc1)NC(c1ccccc1)(c1ccccc1)c1ccccc1 [US20240150287, Example 11] | 3.05 nM
COC(=O)[C@H](Cc1ccc(N2C(=O)C3(CC3)c3cc(N(C)C)ccc32)cc1)NC(c1ccccc1)(c1ccccc1)c1ccccc1 [US20240150287, Example 12] | 4.15 nM
COC(=O)[C@H](Cc1ccc(N2C(=O)C3(CC3)c3ccc(F)c(F)c32)cc1)NC(c1ccccc1)(c1ccccc1)c1ccccc1 [US20240150287, Example 15] | 5.62 nM
COC(=O)[C@H](Cc1ccc(N2C(=O)C3(CC3)c3cccnc32)cc1)NC(c1ccccc1)(c1ccccc1)c1ccccc1 [US20240150287, Example 16] | 0.75 nM
COC(=O)[C@H](Cc1ccc(N2C(=O)C3(CC3)c3cccc(Cl)c32)cc1)NC(=O)c1c(Cl)cc(Cl)cc1Cl [US20240150287, Example 17] | 64.2 nM
COC(=O)[C@H](Cc1ccc(N2C(=O)C3(CC3)c3cccc(Cl)c32)cc1)NC(=O)c1c(Cl)cc(N2CCOCC2)cc1Cl [US20240150287, Example 19] | 11.4 nM

Compound | IC50
COC(=O)[C@H](Cc1ccc(N2C(=O)C3(CC3)c3cccc(Cl)c32)cc1)NC(=O)c1c(Cl)cc(N2CC3CC2CO3)cc1Cl (stereo partly specified) [US20240150287, Example 20] | 4.15 nM
COC(=O)[C@H](Cc1ccc(N2C(=O)C3(CC3)c3cccc(Cl)c32)cc1)NC(=O)c1c(Cl)cc(N2CCC(N3CCOCC3)CC2)cc1Cl [US20240150287, Example 21] | 23.8 nM
COC(=O)[C@H](Cc1ccc(-n2c(=O)n(C)c3cccc(Cl)c32)cc1)NC(c1ccccc1)(c1ccccc1)c1ccccc1 [US20240150287, Example 22] | 1.19 nM
COC(=O)[C@H](Cc1ccc(-n2c(=O)n(C3CC3)c3cc(Cl)ccc32)cc1)NC(c1ccccc1)(c1ccccc1)c1ccccc1 [US20240150287, Example 23] | 143 nM
COC(=O)[C@H](Cc1ccc(-n2c(=O)n(C3CC3)c3ccc(Cl)cc32)cc1)NC(c1ccccc1)(c1ccccc1)c1ccccc1 [US20240150287, Example 24] | 5.67 nM
COC(=O)[C@H](Cc1ccc(-n2c(=O)n(C3CC3)c3cccc(Cl)c32)cc1)NC(c1ccccc1)(c1ccccc1)c1ccccc1 [US20240150287, Example 25] | 7.5 nM
COC(=O)[C@H](Cc1ccc(-n2c(=S)n(C)c3cccc(Cl)c32)cc1)NC(c1ccccc1)(c1ccccc1)c1ccccc1 [US20240150287, Example 26] | 160 nM
COC(=O)[C@H](Cc1ccc(-n2c(=O)n(C3CC3)c3cccc(F)c32)cc1)NC(c1ccccc1)(c1ccccc1)c1ccccc1 [US20240150287, Example 27] | 8.81 nM
COC(=O)[C@H](Cc1ccc(-n2c(=O)n(C3CCN(C)CC3)c3cccc(Cl)c32)cc1)NC(c1ccccc1)(c1ccccc1)c1ccccc1 [US20240150287, Example 29] | 18.1 nM
COC(=O)[C@H](Cc1ccc(-n2c(=O)n(C)c3cccc(F)c32)cc1)NC(c1ccccc1)(c1ccccc1)c1ccccc1 [US20240150287, Example 30] | 1.83 nM
COC(=O)[C@H](Cc1ccc(-n2c(=O)n(C)c3cc(F)cc(F)c32)cc1)NC(c1ccccc1)(c1ccccc1)c1ccccc1 [US20240150287, Example 31] | 5.34 nM
COC(=O)[C@H](Cc1ccc(-n2c(=O)n(C)c3cc(Cl)c(Cl)cc32)cc1)NC(c1ccccc1)(c1ccccc1)c1ccccc1 [US20240150287, Example 32] | 4.19 nM
COC(=O)[C@H](Cc1ccc(-n2c(=O)n(C)c3ccc(F)c(F)c32)cc1)NC(c1ccccc1)(c1ccccc1)c1ccccc1 [US20240150287, Example 33] | 2.7 nM
COC(=O)[C@H](Cc1ccc(-n2c(=O)n(C)c3c(F)c(F)ccc32)cc1)NC(c1ccccc1)(c1ccccc1)c1ccccc1 [US20240150287, Example 34] | 10.5 nM
COC(=O)[C@H](Cc1ccc(-n2c(=O)n(C)c3cccc(OC)c32)cc1)NC(c1ccccc1)(c1ccccc1)c1ccccc1 [US20240150287, Example 35] | 0.45 nM
